Test results from patent US9370520B2, “Macrocyclic LRRK2 kinase inhibitors” (IPSEN PHARMA S.A.S., priority 2011, dated 2016).

Key:
[1] = biological target: T1, truncated LRRK2-G2019S (GST tagged LRRK2-G2019S of amino acids 970-2527) (Homo sapiens, UniProt Q5S007, G2019S); experiment: LRRKtide 32P-ATP peptide kinase assay (Protocol 1), truncated LRRK2-G2019S; type: biochemical; conditions: 10 μM ATP, 200 μM lrrktide
T1 construct: GST tagged LRRK2-G2019S of amino acids 970-2527; GST
Protocol: (§1) The inhibition of LRRK2 and LRRK1 kinase was assessed using LRRK2 and LRRK1 recombinant protein in an in vitro peptide-based kinase assay.
(§2) LRRK2 protein is prepared as described in Daniëls et al. ((2011) J Neurochem 116, 304-315.). HEK293T cells are transfected with pCHMWS-3xflag-LRRK2 plasmid using polyethyleneimine and lysed after 48-72 hours in lysis buffer (Tris 20 mM pH 7.5, NaCl 150 mM, EDTA 1 mM, Triton 1%, Glycerol 10%, protease inhibitor cocktail). Lysates are cleared by centrifugation at 20,000 g for 10 minutes and incubated with normal mouse IgGs bound to agarose beads to remove proteins aspecifically binding to agarose or mouse IgGs. After removal of the IgG bead slurry, lysates are incubated for 3 to 18 hours with flagM2 bound to agarose beads. Beads are washed 4 times with wash buffer (Tris 25 mM pH 7.5, NaCl 400 mM, Triton 1%) and rinsed in kinase buffer (Tris-HCl 25 mM pH 7.5, 10 mM MgCl2, 2 mM dithiothreitol (DTT), 0.02% triton, 5 mM beta-glycerophosphate, 0.1 mM Na3VO4). Proteins are eluted in 5 volumes of kinase buffer containing 100 μg/ml 3xflag peptide. For assays using purified protein bound to affinity resin, affinity beads are resuspended in an equal volume of kinase buffer unless otherwise indicated. Purity and concentration are assessed by SDS-PAGE (3-8% tris-acetate SDS gel) and Coomassie Brilliant Blue staining or silver staining. Alternatively, a truncated LRRK2 enzyme (GST tagged LRRK2 of amino acids 970-2527) and a truncated LRRK2-G2019S (GST tagged LRRK2-G2019S of amino acids 970-2527) are used.
(§3) For Irrktide phosphorylation, recombinant LRRK2 is incubated with 6 μCi of 32P-ATP (3000 Ci/mmol), 200 μM Irrktide, 10 μM ATP and compound or solvent per 40 μl reaction for 30 minutes at 30° C. Compounds are tested at concentrations ranging from […]; the final amount of DMSO in the kinase reaction is 1%. Reactions are stopped and spotted to P81 phosphocellulose paper and washed 4×10 minutes in 75 mM phosphoric acid. Lrrktide phosphorylation levels are measured via autoradiography. Kinase assays are performed for each condition in triplicate.
(§4) LRRKtide phosphorylation levels are plotted vs. the log of the compound concentration and inhibition curves are fitted from which IC50 values are derived.

[2] = biological target: T2, truncated LRRK2 (GST tagged LRRK2 of amino acids 970-2527) (Homo sapiens, UniProt Q5S007); experiment: LRRKtide 32P-ATP peptide kinase assay (Protocol 1), truncated LRRK2; type: biochemical; conditions: 10 μM ATP, 200 μM lrrktide
T2 construct: GST tagged LRRK2 of amino acids 970-2527; GST
Protocol: as §1, §2, §3, §4

full-length LRRK2 = biological target: T3, full-length LRRK2 (Homo sapiens, UniProt Q5S007); experiment: LRRKtide 32P-ATP peptide kinase assay (Protocol 1), full-length LRRK2; type: biochemical; conditions: 10 μM ATP, 200 μM lrrktide
T3 construct: full-length; made in house; host or cells: HEK293T
Protocol: as §1, §2
as §3, with “triplicate. […]” for “triplicate.”

T2 sequence (Q5S007 970-2527): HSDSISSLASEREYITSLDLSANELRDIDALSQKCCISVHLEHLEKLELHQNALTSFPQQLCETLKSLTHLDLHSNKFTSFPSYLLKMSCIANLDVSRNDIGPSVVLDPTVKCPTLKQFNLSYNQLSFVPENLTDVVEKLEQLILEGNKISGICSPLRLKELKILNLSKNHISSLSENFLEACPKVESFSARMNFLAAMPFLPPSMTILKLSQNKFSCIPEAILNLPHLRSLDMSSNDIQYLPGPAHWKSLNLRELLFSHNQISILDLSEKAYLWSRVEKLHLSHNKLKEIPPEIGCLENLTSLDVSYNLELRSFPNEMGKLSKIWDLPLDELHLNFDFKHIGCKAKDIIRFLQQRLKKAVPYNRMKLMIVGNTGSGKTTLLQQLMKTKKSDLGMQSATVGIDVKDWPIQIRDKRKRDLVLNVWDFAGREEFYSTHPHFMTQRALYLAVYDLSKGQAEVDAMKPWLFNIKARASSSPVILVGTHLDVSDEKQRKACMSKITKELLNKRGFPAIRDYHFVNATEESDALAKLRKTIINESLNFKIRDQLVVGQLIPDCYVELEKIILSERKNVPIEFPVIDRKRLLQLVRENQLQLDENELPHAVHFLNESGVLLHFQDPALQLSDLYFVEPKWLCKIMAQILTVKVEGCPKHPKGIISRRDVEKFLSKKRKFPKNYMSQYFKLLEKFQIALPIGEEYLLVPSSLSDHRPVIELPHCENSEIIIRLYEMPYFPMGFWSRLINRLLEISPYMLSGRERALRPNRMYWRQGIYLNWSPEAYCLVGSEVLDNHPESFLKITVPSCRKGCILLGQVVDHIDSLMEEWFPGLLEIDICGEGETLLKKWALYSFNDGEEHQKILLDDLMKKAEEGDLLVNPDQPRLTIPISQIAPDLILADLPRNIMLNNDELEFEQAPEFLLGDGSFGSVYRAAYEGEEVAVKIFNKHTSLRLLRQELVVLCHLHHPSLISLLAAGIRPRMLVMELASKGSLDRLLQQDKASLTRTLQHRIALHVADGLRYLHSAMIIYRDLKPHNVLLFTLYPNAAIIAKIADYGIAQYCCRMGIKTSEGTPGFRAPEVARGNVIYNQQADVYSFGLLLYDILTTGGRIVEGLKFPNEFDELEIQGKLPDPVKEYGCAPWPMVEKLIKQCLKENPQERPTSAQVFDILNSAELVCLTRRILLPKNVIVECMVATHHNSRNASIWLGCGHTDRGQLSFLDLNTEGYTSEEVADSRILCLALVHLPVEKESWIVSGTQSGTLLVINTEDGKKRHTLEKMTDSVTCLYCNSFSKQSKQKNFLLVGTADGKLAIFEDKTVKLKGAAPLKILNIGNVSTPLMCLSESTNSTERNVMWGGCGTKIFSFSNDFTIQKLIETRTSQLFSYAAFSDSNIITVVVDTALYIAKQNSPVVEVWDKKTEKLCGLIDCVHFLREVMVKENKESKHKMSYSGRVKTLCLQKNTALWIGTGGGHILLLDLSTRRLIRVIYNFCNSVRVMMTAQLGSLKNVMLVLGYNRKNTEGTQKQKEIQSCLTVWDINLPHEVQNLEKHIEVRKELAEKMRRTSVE
T1 sequence (Q5S007 970-2527 G2019S): as the sequence (Q5S007 970-2527) above, with G1050S counted along it
T3 sequence (Q5S007 whole entry): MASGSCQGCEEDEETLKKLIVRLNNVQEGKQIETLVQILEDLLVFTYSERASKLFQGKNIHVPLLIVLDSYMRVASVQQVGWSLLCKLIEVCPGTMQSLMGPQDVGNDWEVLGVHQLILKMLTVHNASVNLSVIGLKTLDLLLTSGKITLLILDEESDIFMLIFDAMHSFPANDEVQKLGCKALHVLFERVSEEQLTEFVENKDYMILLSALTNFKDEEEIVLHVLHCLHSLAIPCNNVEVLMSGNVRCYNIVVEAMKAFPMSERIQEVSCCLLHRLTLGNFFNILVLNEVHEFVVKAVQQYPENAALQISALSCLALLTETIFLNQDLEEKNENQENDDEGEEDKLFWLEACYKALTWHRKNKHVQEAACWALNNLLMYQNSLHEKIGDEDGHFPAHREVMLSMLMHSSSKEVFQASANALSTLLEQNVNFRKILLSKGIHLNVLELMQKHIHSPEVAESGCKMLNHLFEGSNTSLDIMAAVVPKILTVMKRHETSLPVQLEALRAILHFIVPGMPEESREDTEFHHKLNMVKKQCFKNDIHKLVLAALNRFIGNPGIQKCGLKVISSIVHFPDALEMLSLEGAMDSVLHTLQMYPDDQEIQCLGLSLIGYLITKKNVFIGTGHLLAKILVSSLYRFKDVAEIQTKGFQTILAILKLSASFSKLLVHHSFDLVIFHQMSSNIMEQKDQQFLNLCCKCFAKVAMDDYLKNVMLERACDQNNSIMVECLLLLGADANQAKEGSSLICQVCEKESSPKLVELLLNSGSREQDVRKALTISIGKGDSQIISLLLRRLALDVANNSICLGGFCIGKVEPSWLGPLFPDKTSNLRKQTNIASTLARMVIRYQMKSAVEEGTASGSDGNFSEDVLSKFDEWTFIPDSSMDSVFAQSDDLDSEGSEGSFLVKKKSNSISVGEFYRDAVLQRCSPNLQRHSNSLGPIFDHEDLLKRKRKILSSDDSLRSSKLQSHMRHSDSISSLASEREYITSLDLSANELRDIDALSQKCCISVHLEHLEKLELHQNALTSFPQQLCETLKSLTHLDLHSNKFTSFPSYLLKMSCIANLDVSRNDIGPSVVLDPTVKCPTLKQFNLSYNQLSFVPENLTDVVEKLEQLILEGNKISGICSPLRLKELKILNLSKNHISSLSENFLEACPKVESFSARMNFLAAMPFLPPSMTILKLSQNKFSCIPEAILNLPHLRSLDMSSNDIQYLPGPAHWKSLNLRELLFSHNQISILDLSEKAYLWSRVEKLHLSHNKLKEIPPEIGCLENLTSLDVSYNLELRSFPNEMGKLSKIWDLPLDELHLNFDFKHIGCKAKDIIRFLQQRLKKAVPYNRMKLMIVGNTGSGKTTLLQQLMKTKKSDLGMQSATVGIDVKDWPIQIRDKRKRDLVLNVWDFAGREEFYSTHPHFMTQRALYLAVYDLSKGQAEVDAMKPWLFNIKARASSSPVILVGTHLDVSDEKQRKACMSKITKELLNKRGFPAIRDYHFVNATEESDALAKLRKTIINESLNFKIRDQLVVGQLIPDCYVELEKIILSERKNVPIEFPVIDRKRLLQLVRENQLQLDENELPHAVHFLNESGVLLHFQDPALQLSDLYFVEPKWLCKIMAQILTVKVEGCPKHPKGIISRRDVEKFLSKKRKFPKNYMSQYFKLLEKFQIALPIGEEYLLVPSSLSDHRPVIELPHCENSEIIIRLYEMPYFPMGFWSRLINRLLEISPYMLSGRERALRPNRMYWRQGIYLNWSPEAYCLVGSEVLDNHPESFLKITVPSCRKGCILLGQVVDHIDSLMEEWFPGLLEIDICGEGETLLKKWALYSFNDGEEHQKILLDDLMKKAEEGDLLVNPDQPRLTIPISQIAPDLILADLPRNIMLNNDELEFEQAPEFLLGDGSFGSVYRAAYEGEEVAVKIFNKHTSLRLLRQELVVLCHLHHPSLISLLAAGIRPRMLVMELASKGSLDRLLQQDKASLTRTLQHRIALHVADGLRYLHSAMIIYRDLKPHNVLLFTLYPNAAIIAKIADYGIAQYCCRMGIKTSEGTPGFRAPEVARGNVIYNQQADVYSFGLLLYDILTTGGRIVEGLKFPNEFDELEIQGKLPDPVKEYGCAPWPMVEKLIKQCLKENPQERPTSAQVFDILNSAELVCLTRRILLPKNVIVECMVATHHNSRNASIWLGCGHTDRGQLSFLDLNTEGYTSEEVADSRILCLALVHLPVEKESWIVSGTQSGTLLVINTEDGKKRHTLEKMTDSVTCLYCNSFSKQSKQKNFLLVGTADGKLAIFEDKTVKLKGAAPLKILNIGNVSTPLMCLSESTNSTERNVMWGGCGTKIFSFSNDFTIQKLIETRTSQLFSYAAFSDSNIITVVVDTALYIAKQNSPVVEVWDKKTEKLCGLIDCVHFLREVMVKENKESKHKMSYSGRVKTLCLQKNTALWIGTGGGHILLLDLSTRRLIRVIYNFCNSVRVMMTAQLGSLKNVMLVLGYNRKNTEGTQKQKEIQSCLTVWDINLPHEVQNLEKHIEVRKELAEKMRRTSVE

Structure (SMILES)	IC50 [1]	melting point	IC50 [2]	IC50 (full-length LRRK2)
O=C1CCNc2ccn3ncc(c3n2)-c2cccc(c2)OCCN1 [Example 3]	< 100 nM	> 300 °C	< 100 nM	< 100 nM
CN1CCNc2ccn3ncc(c3n2)-c2cccc(c2)OCC1=O [Example 5]	100 to 1000 nM	> 300 °C	100 to 1000 nM	100 to 1000 nM
